The record followed here is patent US20210059251A1, “PLANT GROWTH REGULATOR COMPOUNDS” (SYNGENTA PARTICIPATIONS AG, priority 2018, published 2021).

SMILES strings stand for the structures. pIC50: −log10 of the molar value.

One test deals with corn leaf. The experiment in a line: Dark induced senescence of corn leaf (leaf discs). It is filed as cell-based, Corn (variety Multitop). Conditions: 23° C., 8 days, 0.5% DMSO, image analysis, lower value = higher senescence induction potency. How it is done: It is known that strigolactones regulate (accelerate) leaf senescence, potentially through D14 receptor signaling. Compounds of the present invention (I) were compared to structurally-related compounds (Z) in a corn leaf dark induced senescence assay. Corn plants of variety Multitop were grown in a greenhouse with relative 75% humidity and at 23-25° C. for 6 weeks. 1.4 cm diameter leaf discs were placed into 24-well plates containing a test compounds in a concentration gradient (100 μM-0.0001 μM) at a final concentration of 0.5% DMSO. Each concentration was tested in 12 replicates. Plates were sealed with seal foil. The foil was pierced to provide gas exchange in each well. The plates were placed into the completely dark climatic chamber. Plates were incubated in the chamber with 75% humidity and at 23° C. for 8 days. On days 0, 5, 6, 7 and 8 photographs were taken of each plate, and image analysis conducted with a macro developed using the ImageJ software. The image analysis was used to determine the concentration at which 50% senescence was achieved (IC50), see Table 7. The lower the value, the higher senescence induction potency.
Turning to `CC1=C(C)C(O/C=C2/C(=O)N(c3nccs3)C3c4ccccc4CC23)OC1=O` (stereo not shown) [Compound Z2-Me, reference compound], the “IC50 (concentration at which 50% senescence was achieved)” value is “inactive”.

On to `CC1=CC(O/C=C2/C(=O)N(c3nccs3)C3c4ccccc4CC23)OC1=O` (stereo not shown) [Compound Z2, reference compound], for which the “IC50 (concentration at which 50% senescence was achieved)” value was “inactive”.

Still in this test, the particulars now being: Zea mays, foliar, 192 h, 23° C., 8 days, 0.5% DMSO, image analysis, lower value = higher senescence induction potency, read-out: IC50 (concentration at which 50% senescence was achieved).
On to `CC1=C(C)C(O/C=C2/C(=O)N(c3nccs3)C3Cc4ccccc4C23)OC1=O` (stereo not shown) [Compound I-13, (1E)-1-[(3,4-dimethyl-5-oxo-2H-furan-2-yl)oxymethylene]-3-thiazol-2-yl-4,8b-dihydro-3aH-indeno[2,1-b]pyrrol-2-one], for which the pIC50 was 7.95.

Consider `CC(=O)N1C(=O)/C(=C/OC2C=C(C)C(=O)O2)C2c3ccccc3CC21` (stereo not shown) [Compound I-1, (1E)-3-acetyl-1-[(4-methyl-5-oxo-2H-furan-2-yl)oxymethylene]-4,8b-dihydro-3aH-indeno[2,1-b]pyrrol-2-one], for which the pIC50 is 7.19. For `CC(=O)N1C(=O)/C(=C/OC2OC(=O)C(C)=C2C)C2c3ccccc3CC21` (stereo not shown) [Compound I-5, (1E)-3-acetyl-1-[(3,4-dimethyl-5-oxo-2H-furan-2-yl)oxymethylene]-4,8b-dihydro-3aH-indeno[2,1-b]pyrrol-2-one], the pIC50 was 7.62. On to `CC1=CC(O/C=C2/C(=O)N(CC#N)C3Cc4ccccc4C23)OC1=O` (stereo not shown) [Compound I-12-E, 2-[(1E)-1-[(4-methyl-5-oxo-2H-furan-2-yl)oxymethylene]-2-oxo-4,8b-dihydro-3aH-indeno[2,1-b]pyrrol-3-yl]acetonitrile], for which the pIC50 was 5.81. `CC1=CC(O/C=C2/C(=O)N(CC#N)C3c4ccccc4CC23)OC1=O` (stereo not shown) [Compound Z4-E, reference compound]: the pIC50 is 5.43.

`CC(=O)N1C(=O)/C(=C/OC2OC(=O)C(C)=C2C)C2c3ccccc3OC21` (stereo not shown) [Compound I-25]: the pIC50 was 6.00. Turning to `CC1=CC(O/C=C2/C(=O)N(c3ccccc3)C3c4ccccc4CC23)OC1=O` (stereo not shown) [Compound Z3, reference compound], the pIC50 was 5.61. Take `CC1=CC(O/C=C2/C(=O)N(c3nccs3)C3Cc4ccccc4C23)OC1=O` (stereo not shown) [Compound I-9, (1E)-1-[(4-methyl-5-oxo-2H-furan-2-yl)oxymethylene]-3-thiazol-2-yl-4,8b-dihydro-3aH-indeno[2,1-b]pyrrol-2-one]: the pIC50 was 6.90. With `CC1=CC(O/C=C2/C(=O)N(c3ccccc3)C3Cc4ccccc4C23)OC1=O` (stereo not shown) [Compound I-10, (1E)-1-[(4-methyl-5-oxo-2H-furan-2-yl)oxymethylene]-3-phenyl-4,8b-dihydro-3aH-indeno[2,1-b]pyrrol-2-one], the pIC50 is 6.97. For `CC(=O)N1C(=O)/C(=C/OC2C=C(C)C(=O)O2)C2Cc3ccccc3C21` (stereo not shown) [Compound Z1, reference compound], the pIC50 is 6.96.

Turning to `CC(=O)N1C(=O)/C(=C/OC2OC(=O)C(C)=C2C)C2Cc3ccccc3C21` (stereo not shown) [Compound Z1-Me, reference compound], the pIC50 is 7.52.
